Source: patent publication US11292801B2, “Calpain modulators and therapeutic uses thereof” (Blade Therapeutics, Inc., priority 2016, dated 2022)

Experiments:
Human Calpain 2/NS1 = target: T1, Human Calpain 2/NS1 (Homo sapiens, UniProt P17655); assay: Biochemical inhibition of calpain 2, continuous fluorescence (FRET substrate) assay; conditions: mean, read-out: Human Calpain 2/NS1 IC50 (nM)_MEAN
T1 sequence (P17655 1-700): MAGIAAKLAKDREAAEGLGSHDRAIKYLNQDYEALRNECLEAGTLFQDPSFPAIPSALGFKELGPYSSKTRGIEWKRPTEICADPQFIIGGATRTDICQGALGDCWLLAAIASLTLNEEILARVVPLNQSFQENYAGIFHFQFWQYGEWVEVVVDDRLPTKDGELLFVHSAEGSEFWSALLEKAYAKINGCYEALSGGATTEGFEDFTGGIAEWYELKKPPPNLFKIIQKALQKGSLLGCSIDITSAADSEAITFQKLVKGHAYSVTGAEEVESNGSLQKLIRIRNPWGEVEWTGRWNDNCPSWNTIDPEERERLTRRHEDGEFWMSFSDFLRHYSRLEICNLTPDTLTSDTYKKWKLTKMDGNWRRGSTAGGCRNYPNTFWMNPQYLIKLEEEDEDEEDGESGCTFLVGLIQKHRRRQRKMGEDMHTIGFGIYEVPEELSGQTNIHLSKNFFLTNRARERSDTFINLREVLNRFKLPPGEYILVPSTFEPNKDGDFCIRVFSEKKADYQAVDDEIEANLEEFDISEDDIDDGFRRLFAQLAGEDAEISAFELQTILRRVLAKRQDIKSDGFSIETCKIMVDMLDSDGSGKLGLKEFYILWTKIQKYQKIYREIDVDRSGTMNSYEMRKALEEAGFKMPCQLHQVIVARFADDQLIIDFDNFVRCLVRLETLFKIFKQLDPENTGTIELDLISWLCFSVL
T1 sequence (P04632 1-268 partner): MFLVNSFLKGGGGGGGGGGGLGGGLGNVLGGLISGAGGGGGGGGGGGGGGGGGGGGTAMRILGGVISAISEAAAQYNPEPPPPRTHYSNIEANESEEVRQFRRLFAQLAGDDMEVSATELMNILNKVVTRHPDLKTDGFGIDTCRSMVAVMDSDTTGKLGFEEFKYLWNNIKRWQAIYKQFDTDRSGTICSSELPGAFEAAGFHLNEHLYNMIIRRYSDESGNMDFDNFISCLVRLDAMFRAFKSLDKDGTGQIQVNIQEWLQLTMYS
Outline: (§1)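 Continuous FRET assay with 5-FAM/QXL520 peptide substrate in 50 mM Tris pH ~7.5, 100 mM NaCl, 1 mM DTT. Enzyme preincubated with inhibitor at 25C; reaction started with substrate plus CaCl2, read at 490/520 nm for 10 min. Rates from slopes over 1-5 min, IC50 from 4-parameter logistic fit.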

Human Calpain 1/NS1 = target: T2, Human Calpain 1/NS1 (Homo sapiens, UniProt P07384); assay: Biochemical inhibition of calpain 1, continuous fluorescence (FRET substrate) assay; conditions: mean, read-out: Human Calpain 1/NS1 IC50 (nM)_MEAN
T2 sequence (P07384 1-714): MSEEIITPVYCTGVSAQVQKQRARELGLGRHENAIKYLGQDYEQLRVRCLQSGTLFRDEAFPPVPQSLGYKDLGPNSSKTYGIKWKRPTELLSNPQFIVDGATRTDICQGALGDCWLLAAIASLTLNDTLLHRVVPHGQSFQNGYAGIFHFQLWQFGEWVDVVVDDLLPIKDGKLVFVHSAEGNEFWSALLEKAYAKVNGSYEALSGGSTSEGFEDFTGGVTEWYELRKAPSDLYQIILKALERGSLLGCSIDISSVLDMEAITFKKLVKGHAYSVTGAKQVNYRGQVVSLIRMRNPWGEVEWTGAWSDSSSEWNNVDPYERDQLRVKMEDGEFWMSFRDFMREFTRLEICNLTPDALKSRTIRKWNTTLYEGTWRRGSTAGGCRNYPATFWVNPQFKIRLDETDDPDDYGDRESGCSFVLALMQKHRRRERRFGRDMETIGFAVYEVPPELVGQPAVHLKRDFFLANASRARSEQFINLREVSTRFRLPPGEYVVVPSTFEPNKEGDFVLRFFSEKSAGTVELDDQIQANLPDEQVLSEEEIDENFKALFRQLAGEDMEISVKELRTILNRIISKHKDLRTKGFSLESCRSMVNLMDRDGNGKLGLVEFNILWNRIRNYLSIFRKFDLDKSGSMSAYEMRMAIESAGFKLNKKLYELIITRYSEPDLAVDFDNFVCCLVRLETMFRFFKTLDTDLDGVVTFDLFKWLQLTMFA
T2 sequence (P04632 1-268 partner): T1 sequence (P04632 1-268 partner)
Outline: as §1

Human Calpain 9/NS1 = target: T3, Human Calpain 9/NS1 (Homo sapiens, UniProt O14815); assay: Biochemical inhibition of calpain 9, continuous fluorescence (FRET substrate) assay; conditions: mean, read-out: Human Calpain 9/NS1 IC50 (nM)_MEAN
T3 sequence (O14815 1-690): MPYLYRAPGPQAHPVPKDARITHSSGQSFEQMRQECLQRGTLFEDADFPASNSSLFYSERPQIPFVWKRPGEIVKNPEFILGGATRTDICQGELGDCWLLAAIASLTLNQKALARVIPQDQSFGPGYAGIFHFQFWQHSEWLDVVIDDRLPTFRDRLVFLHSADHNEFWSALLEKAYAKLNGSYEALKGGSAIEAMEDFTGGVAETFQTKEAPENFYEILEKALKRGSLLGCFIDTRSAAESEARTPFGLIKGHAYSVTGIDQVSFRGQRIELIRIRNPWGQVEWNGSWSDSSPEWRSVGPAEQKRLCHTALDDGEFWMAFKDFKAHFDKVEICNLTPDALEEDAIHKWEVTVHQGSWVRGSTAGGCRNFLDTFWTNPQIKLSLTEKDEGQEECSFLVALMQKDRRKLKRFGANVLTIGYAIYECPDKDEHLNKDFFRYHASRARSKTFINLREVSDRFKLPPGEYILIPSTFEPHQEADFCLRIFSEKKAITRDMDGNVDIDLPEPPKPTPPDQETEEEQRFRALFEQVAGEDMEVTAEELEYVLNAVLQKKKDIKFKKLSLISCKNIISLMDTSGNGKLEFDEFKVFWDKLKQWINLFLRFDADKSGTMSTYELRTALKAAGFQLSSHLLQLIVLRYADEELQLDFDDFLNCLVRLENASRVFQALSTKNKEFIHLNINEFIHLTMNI
T3 sequence (P04632 1-268 partner): T1 sequence (P04632 1-268 partner)
Outline: as §1

IC50 (Human Calpain 2/NS1) | IC50 (Human Calpain 1/NS1) | IC50 (Human Calpain 9/NS1) | SMILES
> 10000 nM | > 10000 nM | > 10000 nM | CCNC(=O)C(=O)[C@@H]1CCCCCCCCCCc2ccccc2C(=O)N1 [Compound 34, (S)—N-ethyl-2-oxo-2-(1-oxo-2,3,4,5,6,7,8,9,10,11,12,13-dodecahydro-1h-benzo[c][1]azacyclopentadecin-3-yl)acetamide]
> 10000 nM | > 10000 nM | < 3000 nM | O=C(NCc1ccccc1Cl)C(=O)C1CCCCOCCOCc2ccccc2C(=O)N1 (stereo not drawn) [Compound 95, N-(2-chlorobenzyl)-2-oxo-2-(12-oxo-1,3,4,6,7,8,9,10,11,12-decahydrobenzo[f][1,4]dioxa[9]azacyclotetradecin-10-yl)acetamide]
> 10000 nM | > 10000 nM | < 3000 nM | CCCCc1ccc(CNC(=O)C(=O)C2CCCCOCCOCc3ccccc3C(=O)N2)cc1 (stereo not drawn) [Compound 112, N-(4-butylbenzyl)-2-oxo-2-(12-oxo-1,3,4,6,7,8,9,10,11,12-decahydrobenzo[f][1,4]dioxa[9]azacyclotetradecin-10-yl)acetamide]
> 10000 nM | > 10000 nM | 3000 to 10000 nM | C#CCNC(=O)C(=O)C1CCCCOCCOCc2ccccc2C(=O)N1 (stereo not drawn) [Compound 85, 2-Oxo-2-(12-oxo-1,3,4,6,7,8,9,10,11,12-decahydrobenzo[f][1,4]dioxa[9]aza-cyclotetradecin-10-yl)-N-(prop-2-yn-1-yl)acetamide]
> 10000 nM | > 10000 nM | > 10000 nM | O=C(NC1(c2cccnc2)CC1)C(=O)C1CCCCOCCOCc2ccccc2C(=O)N1 (stereo not drawn) [Compound 125, 2-Oxo-2-(12-oxo-1,3,4,6,7,8,9,10,11,12-decahydrobenzo[f][1,4]dioxa[9]aza-cyclotetradecin-10-yl)-N-(1-(pyridin-3-yl)cyclopropyl)acetamide]
> 10000 nM | > 10000 nM | 3000 to 10000 nM | O=C(NCCCN1CCOCC1)C(=O)C1CCCCOCCOCc2ccccc2C(=O)N1 (stereo not drawn) [Compound 92, N-(3-morpholinopropyl)-2-oxo-2-(12-oxo-1,3,4,6,7,8,9,10,11,12-decahydrobenzo[f][1,4]dioxa[9]azacyclotetradecin-10-yl)acetamide]
3000 to 10000 nM | > 10000 nM | < 3000 nM | O=C(NCc1ccc2c(c1)OCO2)C(=O)C1CCCCOCCOCc2ccccc2C(=O)N1 (stereo not drawn) [Compound 81, N-(benzo[d][1,3]dioxol-5-ylmethyl)-2-oxo-2-(12-oxo-1,3,4,6,7,8,9,10,11,12-decahydrobenzo[f][1,4]dioxa[9]azacyclotetradecin-10-yl)acetamide]
3000 to 10000 nM | > 10000 nM | < 3000 nM | COc1ccc(CNC(=O)C(=O)C2CCCCOCCOCc3ccccc3C(=O)N2)cc1 (stereo not drawn) [Compound 100, N-(4-methoxybenzyl)-2-oxo-2-(12-oxo-1,3,4,6,7,8,9,10,11,12-decahydrobenzo[f][1,4]dioxa[9]azacyclotetradecin-10-yl)acetamide]
> 10000 nM | > 10000 nM | > 10000 nM | CC(C)NC(=O)C(=O)[C@@H]1C/C=C/COCCOCc2ccccc2C(=O)N1 [Compound 62, (S,E)-N-isopropyl-2-oxo-2-(12-oxo-1,3,4,6,9,10,11,12-octahydrobenzo[f][1,4]dioxa[9]azacyclotetradecin-10-yl)acetamide]

Further lines, the compound ahead of its results:

SMILES | IC50 (Human Calpain 2/NS1) | IC50 (Human Calpain 1/NS1) | IC50 (Human Calpain 9/NS1)
CCNC(=O)C(=O)[C@@H]1Cc2ccc(cc2)OCCCCOc2ccc3c(cnn3-c3ncccc3C(=O)N1)c2 [Compound 47, N-ethyl-2-oxo-2-((5S)-3-oxo-1H-8,13-dioxa-4-aza-1(1,5)-indazola-2(2,3)-pyridina-7(1,4)-benzenacyclotridecaphane-5-yl)acetamide] | < 3000 nM | < 3000 nM | < 3000 nM
CON(C)C(=O)[C@@H]1C/C=C\CCOc2ccnc(n2)-c2ccccc2C(=O)N1 [Compound 136, (S,Z)—N-methoxy-N-methyl-3-oxo-11-oxa-4-aza-1(2,4)-pyrimidina-2(1,2)-benzenacycloundecaphan-7-ene-5-carboxamide] | > 10000 nM | > 10000 nM | > 10000 nM
O=C[C@@H]1CC=CCCOc2nccc(n2)-c2ccccc2C(=O)N1 [Compound 40, (S)-11-Oxo-3-oxa-10-aza-1(2,3)-pyridina-2(1,3)-benzena-cycloundecaphane-9-carbaldehyde] | < 3000 nM | 3000 to 10000 nM | < 3000 nM
CCNC(=O)C(=O)[C@@H]1Cc2ccc(cc2)OC/C=C/COc2cccc(c2)-c2ccn(n2)-c2ncccc2C(=O)N1 [Compound 65, N-ethyl-2-oxo-2-((2^2E,6S,11E)-4-oxo-2^1H-9,14-dioxa-5-aza-3(2,3)-pyridina-2(3,1)-pyrazola-1(1,3),8(1,4)-dibenzenacyclotetradecaphan-11-en-6-yl)acetamide] | < 3000 nM | < 3000 nM | < 3000 nM
O=C[C@@H]1CCCCCOc2ccc(F)c(c2)-c2ccccc2C(=O)N1 [Compound 146, (S)-2^6-fluoro-11-oxo-3-oxa-10-aza-1(1,2),2(1,3)-dibenzenacycloundecaphane-9-carbaldehyde] | < 3000 nM | < 3000 nM | < 3000 nM
O=C[C@@H]1Cc2cccc(c2)CCCOCc2ccccc2C(=O)N1 [Compound 32, (S)-2-Oxo-10-oxa-3-aza-1(1,2),6(1,3)-dibenzena-cycloundecaphane-4-carbaldehyde] | < 3000 nM | < 3000 nM | < 3000 nM
O=C[C@@H]1Cc2ccccc2CCCCCCOc2ccccc2C(=O)N1 [Compound 20, (S)-19-Oxo-6,7,8,9,10,11,16,17,18,19-decahydrodibenzo[b,h][1]oxa[5]aza-cyclopentadecine-17-carbaldehyde] | < 3000 nM | 3000 to 10000 nM | < 3000 nM
O=C[C@@H]1CC=CCOCCn2ccc3cccc(c32)C(=O)N1 [Compound 9] | < 3000 nM | > 10000 nM | < 3000 nM
O=C[C@@H]1Cc2ccc(cc2)OCC=CCOc2ccc3nn(cc3c2)-c2ncccc2C(=O)N1 [Compound 71, (1^3Z,1^4E,5S)-3-oxo-1^2H-8,13-dioxa-4-aza-1(2,5)-indazola-2(2,3)-pyridina-7(1,4)-benzenacyclotridecaphan-10-ene-5-carbaldehyde] | < 3000 nM | < 3000 nM | < 3000 nM
